Data on 42 compounds can be found in ChEMBL document CHEMBL5252528, “Transient Receptor Potential Melastatin 8 Channel (TRPM8) Modulation: Cool Entryway for Treating Pain and Cancer” (J Med Chem, 2016).

SMILES strings stand for the structures.

The target in assay [1] is T1, Transient receptor potential cation channel subfamily M member 8 (Homo sapiens, UniProt Q7Z2W7). As to the kind of experiment: Agonist activity at human recombinant TRPM8.
Assay [2] concerns Rattus norvegicus. As to the kind of experiment: Reversal of icilin induced behaviours in rat at 10 mg/kg, po relative to control. The format is functional.
The species named for assay [3] is Rattus norvegicus. As to the kind of experiment: Antihypersensitivity activity at rat assessed as reduction in pain relative to control. The class given is functional.
The target of assay [4] is T1, Transient receptor potential cation channel subfamily M member 8. As to the kind of experiment: Antagonist activity at TRPM8 (unknown origin).
Assay [5] shares this target. As to the kind of experiment: Antagonist activity at human TRMP8 incubated for 24 hrs. The format is cell-based, HEK293.
The target in assay [6] is Transient receptor potential cation channel subfamily M member 8 (Mus musculus, UniProt Q8R4D5). Description: Agonist activity at mouse TRMP8 expressed in HEK293 cells. The format is cell-based.
The target of assay [7] is T1, Transient receptor potential cation channel subfamily M member 8. As to the kind of experiment: Antagonist activity at human TRPM8 expressed in HEK293 cells. The format is cell-based.
The target is the same in assay [8]. Description: Agonist activity at TRPM8 (unknown origin) by fluorometric imaging plate reader analysis.
Assay [9] shares this target. As to the kind of experiment: Agonist activity at human TRMP8 expressed in HEK293 cells. The format is cell-based.
Assay [10] shares this target. Description: […] activity at human TRMP8 expressed in HEK293 cells incubated for 24 hrs by HTS assay. The class given is cell-based.
The subject of assay [11] is Rattus norvegicus. Description: Reversal of icilin induced behaviours in rat at 30 mg/kg, po relative to control. The class given is functional.
In assay [12] the target is T1, Transient receptor potential cation channel subfamily M member 8. Description: Antagonist activity at human TRPM8 expressed in […] induced HEK293 cells. The class given is cell-based.
Assay [13] addresses Transient receptor potential cation channel subfamily M member 8 (Rattus norvegicus) (UniProt Q8R455). As to the kind of experiment: In vivo antagonist activity at TRPM8 in po dosed rat assessed as shaking behaviour. The class given is functional, organism-based.
In assay [14] the target is T1, Transient receptor potential cation channel subfamily M member 8. As to the kind of experiment: Agonist activity at TRPM8 (unknown origin).
Assay [15] has as its system Rattus norvegicus. Description: Antihypersensitivity activity at icilin induced rat assessed as reduction in wet-dog shakes at 3 mg/kg relative to control. The format is functional.
For assay [16], the target named is T1, Transient receptor potential cation channel subfamily M member 8. Description: […] activity at human TRMP8 expressed in HEK293 cells measured after 24 hrs of menthol activation by patch clamp assay. The format is cell-based.
Assay [17] deals with Rattus norvegicus. Description: Antinociceptive activity at rat assessed as reduction in pain at 30 mg/kg, po relative to control. The format is functional.
Assay [18] concerns Rattus norvegicus. Description: Antihypersensitivity activity at carrageenan induced rat assessed as reduction in heat hypersensitivity at 30 mg/kg, po relative to control. The format is functional.
Assay [19] is filed under the species Rattus norvegicus. As to the kind of experiment: Antihypersensitivity activity at rat assessed as reduction in wet-dog shakes relative to control. The class given is functional.
The species named for assay [20] is Rattus norvegicus. Description: Antihypersensitivity activity at rat assessed as cardiovascular pressor responses relative to control. The format is functional.
The target of assay [21] is T1, Transient receptor potential cation channel subfamily M member 8. Description: […] activity at human TRMP8 expressed in HEK293 cells measured after 24 hrs of cold activation by patch clamp assay. The format is cell-based.
The subject of assay [22] is Rattus norvegicus. Description: Antihypersensitivity activity at cfa induced rat assessed as thermal and mechanical hyperalgesia at 10 mg/kg, po relative to control. The format is functional.
Assay [23] concerns the target T1, Transient receptor potential cation channel subfamily M member 8. Description: Antagonist activity at human TRPM8 expressed in HEK293 cells assessed as reduction in menthol induced calcium influx. The format is cell-based.
Assay [24] has the same target. Description: Antagonist activity at TRPM8 (unknown origin) by fluorescence based assay.
The test system of assay [25] is Rattus norvegicus. Description: Antihypersensitivity activity at rat assessed as reduction in wet-dog shakes at 1 mg/kg relative to control. The format is functional.
Assay [26] concerns the target T1, Transient receptor potential cation channel subfamily M member 8. Description: Antagonist activity at human TRPM8 expressed in CHO cells. The format is cell-based.
For assay [27], the target named is Transient receptor potential cation channel subfamily V member 1 (Homo sapiens, UniProt Q8NER1). Description: Modulation of TRPV1 (unknown origin) by fluorometric imaging plate reader analysis.
For assay [28], the target named is Transient receptor potential cation channel subfamily A member 1 (Homo sapiens, UniProt O75762). As to the kind of experiment: Agonist activity at TRPA1 (unknown origin).
Transient receptor potential cation channel subfamily A member 1, sequence (O75762 whole entry): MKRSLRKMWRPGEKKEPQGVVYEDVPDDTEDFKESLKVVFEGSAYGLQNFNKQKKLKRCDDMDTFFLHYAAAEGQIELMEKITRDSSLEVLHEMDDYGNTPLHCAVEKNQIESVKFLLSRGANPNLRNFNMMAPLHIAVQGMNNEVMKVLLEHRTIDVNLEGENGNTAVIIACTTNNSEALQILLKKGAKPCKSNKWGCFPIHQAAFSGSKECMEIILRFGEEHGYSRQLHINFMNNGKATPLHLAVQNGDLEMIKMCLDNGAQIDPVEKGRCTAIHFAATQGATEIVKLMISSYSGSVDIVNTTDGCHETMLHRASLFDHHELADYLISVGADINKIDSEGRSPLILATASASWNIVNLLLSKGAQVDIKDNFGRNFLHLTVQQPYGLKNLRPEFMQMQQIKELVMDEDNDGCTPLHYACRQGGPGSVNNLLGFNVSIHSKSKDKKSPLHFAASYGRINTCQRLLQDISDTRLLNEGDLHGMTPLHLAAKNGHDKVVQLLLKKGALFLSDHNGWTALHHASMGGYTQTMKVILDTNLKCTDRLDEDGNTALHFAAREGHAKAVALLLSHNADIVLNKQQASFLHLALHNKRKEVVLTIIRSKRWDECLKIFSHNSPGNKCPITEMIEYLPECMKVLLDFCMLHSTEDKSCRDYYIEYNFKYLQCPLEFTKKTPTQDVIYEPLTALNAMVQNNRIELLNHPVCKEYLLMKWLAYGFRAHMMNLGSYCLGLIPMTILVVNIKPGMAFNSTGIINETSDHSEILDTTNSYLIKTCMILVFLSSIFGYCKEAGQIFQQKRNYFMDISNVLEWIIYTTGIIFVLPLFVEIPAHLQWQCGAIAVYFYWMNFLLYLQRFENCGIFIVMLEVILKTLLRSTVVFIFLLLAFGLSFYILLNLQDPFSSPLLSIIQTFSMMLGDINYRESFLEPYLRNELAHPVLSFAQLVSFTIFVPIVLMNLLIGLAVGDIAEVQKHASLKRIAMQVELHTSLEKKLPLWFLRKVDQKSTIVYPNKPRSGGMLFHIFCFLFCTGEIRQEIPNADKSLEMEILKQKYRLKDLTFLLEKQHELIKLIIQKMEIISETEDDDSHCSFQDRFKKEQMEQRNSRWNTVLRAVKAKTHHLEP

T1 sequence (Q7Z2W7 whole entry): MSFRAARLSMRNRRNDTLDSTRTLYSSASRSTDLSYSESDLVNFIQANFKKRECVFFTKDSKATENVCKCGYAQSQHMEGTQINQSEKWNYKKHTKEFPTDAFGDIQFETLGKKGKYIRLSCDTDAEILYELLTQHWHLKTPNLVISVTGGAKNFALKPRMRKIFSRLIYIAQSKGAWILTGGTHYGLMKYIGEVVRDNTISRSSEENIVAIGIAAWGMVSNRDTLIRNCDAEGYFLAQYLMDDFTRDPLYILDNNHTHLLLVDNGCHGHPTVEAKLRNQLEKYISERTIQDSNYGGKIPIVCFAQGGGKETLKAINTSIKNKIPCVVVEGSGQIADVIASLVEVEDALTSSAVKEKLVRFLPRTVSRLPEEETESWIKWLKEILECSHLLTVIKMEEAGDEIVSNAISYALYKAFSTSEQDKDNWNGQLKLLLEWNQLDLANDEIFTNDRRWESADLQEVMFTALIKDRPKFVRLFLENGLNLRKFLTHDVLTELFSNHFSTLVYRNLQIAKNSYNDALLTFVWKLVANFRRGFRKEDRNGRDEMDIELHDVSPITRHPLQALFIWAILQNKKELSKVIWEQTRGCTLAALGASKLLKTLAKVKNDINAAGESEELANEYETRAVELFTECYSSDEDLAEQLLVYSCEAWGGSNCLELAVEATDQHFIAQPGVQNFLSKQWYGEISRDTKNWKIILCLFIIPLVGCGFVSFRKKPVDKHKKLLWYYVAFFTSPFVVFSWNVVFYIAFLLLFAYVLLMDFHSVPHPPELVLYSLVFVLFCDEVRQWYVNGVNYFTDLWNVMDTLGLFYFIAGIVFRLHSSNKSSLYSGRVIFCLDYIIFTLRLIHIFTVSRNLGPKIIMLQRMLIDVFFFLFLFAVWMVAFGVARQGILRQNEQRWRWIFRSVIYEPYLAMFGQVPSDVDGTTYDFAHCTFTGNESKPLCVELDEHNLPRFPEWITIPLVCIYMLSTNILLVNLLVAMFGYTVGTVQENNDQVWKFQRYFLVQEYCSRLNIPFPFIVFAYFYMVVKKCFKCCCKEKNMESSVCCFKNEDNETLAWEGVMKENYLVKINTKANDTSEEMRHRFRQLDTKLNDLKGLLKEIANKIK
Transient receptor potential cation channel subfamily M member 8 (Mus musculus, UniProt Q8R4D5), sequence (Q8R4D5 whole entry): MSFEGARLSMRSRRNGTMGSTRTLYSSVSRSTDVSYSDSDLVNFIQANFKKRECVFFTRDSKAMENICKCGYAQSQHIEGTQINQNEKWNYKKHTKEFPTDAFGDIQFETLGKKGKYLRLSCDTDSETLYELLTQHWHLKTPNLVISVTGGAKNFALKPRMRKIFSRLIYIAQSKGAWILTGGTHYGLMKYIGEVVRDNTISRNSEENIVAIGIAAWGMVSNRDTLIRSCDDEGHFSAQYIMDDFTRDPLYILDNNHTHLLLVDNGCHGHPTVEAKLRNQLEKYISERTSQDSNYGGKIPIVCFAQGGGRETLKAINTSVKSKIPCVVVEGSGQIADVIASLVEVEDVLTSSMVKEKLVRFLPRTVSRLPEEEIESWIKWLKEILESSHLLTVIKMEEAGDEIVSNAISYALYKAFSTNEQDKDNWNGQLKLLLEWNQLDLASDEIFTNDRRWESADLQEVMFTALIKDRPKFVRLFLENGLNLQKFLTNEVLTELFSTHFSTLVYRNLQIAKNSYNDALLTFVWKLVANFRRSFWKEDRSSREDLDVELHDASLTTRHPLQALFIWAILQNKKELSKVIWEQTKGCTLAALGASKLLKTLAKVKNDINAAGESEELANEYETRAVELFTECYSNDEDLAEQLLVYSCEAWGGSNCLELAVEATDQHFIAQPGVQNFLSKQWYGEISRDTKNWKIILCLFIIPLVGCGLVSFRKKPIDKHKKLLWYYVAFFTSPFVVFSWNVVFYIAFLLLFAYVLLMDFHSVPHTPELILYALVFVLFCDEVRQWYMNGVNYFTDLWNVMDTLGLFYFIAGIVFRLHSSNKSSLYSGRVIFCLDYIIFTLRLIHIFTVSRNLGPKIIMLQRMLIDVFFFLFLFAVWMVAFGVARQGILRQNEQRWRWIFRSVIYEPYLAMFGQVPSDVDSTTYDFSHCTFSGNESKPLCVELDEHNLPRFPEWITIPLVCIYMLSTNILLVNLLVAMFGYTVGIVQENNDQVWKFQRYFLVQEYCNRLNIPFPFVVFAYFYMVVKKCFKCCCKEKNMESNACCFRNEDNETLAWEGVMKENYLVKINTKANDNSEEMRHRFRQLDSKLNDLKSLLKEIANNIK
Transient receptor potential cation channel subfamily M member 8 (Rattus norvegicus), sequence (Q8R455 whole entry, looked up): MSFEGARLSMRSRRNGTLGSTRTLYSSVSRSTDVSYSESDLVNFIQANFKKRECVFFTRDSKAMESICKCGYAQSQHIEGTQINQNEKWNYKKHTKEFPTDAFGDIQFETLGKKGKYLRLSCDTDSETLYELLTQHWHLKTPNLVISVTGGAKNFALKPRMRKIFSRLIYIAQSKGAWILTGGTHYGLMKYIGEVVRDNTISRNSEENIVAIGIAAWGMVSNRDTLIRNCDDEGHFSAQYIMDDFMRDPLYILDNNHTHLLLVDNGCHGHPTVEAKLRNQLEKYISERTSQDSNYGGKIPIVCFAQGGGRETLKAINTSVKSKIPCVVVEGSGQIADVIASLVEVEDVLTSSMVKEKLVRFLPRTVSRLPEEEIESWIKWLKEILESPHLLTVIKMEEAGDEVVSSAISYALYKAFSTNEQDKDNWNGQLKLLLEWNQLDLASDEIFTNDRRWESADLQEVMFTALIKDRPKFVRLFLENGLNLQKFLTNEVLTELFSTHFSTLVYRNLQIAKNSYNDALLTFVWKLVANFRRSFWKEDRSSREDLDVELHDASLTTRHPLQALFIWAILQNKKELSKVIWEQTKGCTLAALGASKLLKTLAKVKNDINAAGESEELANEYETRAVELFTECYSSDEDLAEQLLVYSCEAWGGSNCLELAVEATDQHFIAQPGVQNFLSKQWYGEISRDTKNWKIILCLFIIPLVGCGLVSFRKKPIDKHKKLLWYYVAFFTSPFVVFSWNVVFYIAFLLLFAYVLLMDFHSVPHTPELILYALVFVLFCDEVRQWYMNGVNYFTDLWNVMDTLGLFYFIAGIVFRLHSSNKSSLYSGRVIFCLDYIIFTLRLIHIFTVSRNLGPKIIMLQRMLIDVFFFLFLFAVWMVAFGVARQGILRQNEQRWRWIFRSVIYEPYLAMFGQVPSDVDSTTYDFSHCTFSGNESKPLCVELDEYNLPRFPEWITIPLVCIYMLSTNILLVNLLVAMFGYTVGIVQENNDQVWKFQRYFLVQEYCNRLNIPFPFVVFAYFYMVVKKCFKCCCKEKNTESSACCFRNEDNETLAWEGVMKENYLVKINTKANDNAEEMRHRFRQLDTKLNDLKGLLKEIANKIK

On to `COc1cnc(-c2ccccn2)nc1CC(C)C`, for which the EC50 in [1] stood at 0.1 µM.
Consider `FC(F)(F)c1ccccc1-c1cc(C(F)(F)F)c2[nH]c(C3=NOC4(CCCCC4)C3)nc2c1`, for which the Activity in the assay with Rattus norvegicus [2] is 98%. Further, the “inhibition (INH)” value in the assay filed under Rattus norvegicus [3] worked out at 83%.
On to `Clc1ccc(COC(Cn2ccnc2)c2ccc(Cl)cc2Cl)cc1` (stereo not drawn) [ECONAZOLE], for which, in assay [4], 0.42 µM corresponded to half-maximal inhibition (IC50).
As for `COc1nc(-c2ccccc2Cl)cc2nc(-c3c(Cl)c(C(C)(C)C)nn3C)[nH]c12`, in assay [5], inhibition was half-maximal at 0.0035 µM (IC50).
In the case of `CC12CCC(CC1)C(C)(C)O2` [EUCALYPTOL], in [6], the EC50 came out at 7000 µM.
Consider `COc1cc(CN(CCN)C(=O)NC(C)c2ccccc2)ccc1OCc1ccccc1` (stereo not drawn), for which the midpoint of inhibition in assay [7], the IC50, lay at 0.05 nM.
In the case of `C=CCc1cc(OC)c(OC(C)C(O[C@@H]2C[C@H](C)CC[C@H]2C(C)C)c2ccc(OC)c(OC)c2)c(OC)c1` (stereo partly drawn), the EC50 in [8] came to 10 µM.
In assay [9], `C=CCc1ccc(O)c(OC)c1` [EUGENOL] had an EC50 of 66 µM.
In the case of `CC(C)[C@@H]1CC[C@@H](C)C[C@H]1C(=O)NCC(NC(=O)[C@H](C)N)c1ccccc1` (stereo partly drawn), in assay [8], the EC50 was less than 5 µM.
`CC(C)[C@@H]1CC[C@@H](C)C[C@H]1C(=O)Nc1ccc(S(=O)(=O)Nc2ncccn2)cc1`: it took 4 µM to reach a half-maximal effect in [8] (EC50).
`COc1ccc(CCCOC(Cn2ccnc2)c2ccc(OC)cc2)cc1` (stereo not drawn) gave an IC50 in assay [4] of 0.8 µM.
In the case of `CC(C)OP(=O)(OC(C)C)[C@@H](Cc1ccc(F)c(C(F)(F)F)c1)c1sc2ccccc2c1Br`, the IC50 in [10] is 0.009 µM. The Activity in the assay with Rattus norvegicus [11] was 80%.
`Cc1c(N(Cc2ccc(OC(F)(F)F)cc2)S(=O)(=O)CCN2CCC(c3ccccc3)CC2)sc2ccccc12` returned an IC50 in [10] of 0.026 µM.
As to `CCCCCc1cc(O)c2c(c1)OC(C)(C)[C@@H]1CCC(C)=C[C@@H]21` [DRONABINOL], the IC50 in [4] was 0.16 µM.
As to `NCCc1c[nH]c2ccc(Oc3ccccc3)cc12`, half-maximal inhibition in [12] (IC50) required 0.34 µM.
With `COc1ccc(NC(=O)[C@@H]2C[C@H](C)CC[C@H]2C(C)C)c(NC(=O)[C@@H](C)N)c1`, a half-maximal response in assay [8] (EC50) required 3 µM.
In assay [4], `C[C@H](N)[C@H](O)C/C=C\C/C=C\C/C=C\C/C=C\C/C=C\C/C=C\CCCCCC[C@@H](O)[C@H](C)N` registered an IC50 of 6 µM.
With `O=C(O)c1ccc(S(=O)(=O)N(Cc2ccc(OC(F)(F)F)cc2)c2ncc(C(F)(F)F)cc2Cl)cc1`, in assay [13], the ED50 is 0.65 mg/kg.
In turn, `C=C(C)[C@]12C[C@@H](C)[C@@]34OC(Cc5ccccc5)(O[C@@H]1C3C=C(COC(=O)Cc1ccc(O)c(OC)c1)C[C@]1(O)C(=O)C(C)=C[C@@H]41)O2` (stereo partly drawn) showed an IC50 in [4] of 0.15 µM.
In turn, `Cc1cc(NC(C)C)no1` showed an EC50 in [14] of 0.1 µM.
`CCCCCc1cc2c(c(O)c1C(=O)O)[C@@H]1C=C(C)CC[C@H]1C(C)(C)O2` [DELTA9-TETRAHYDROCANNABINOLIC ACID A] showed an IC50 in [4] of 0.15 µM.
In the case of `COc1ccccc1C(=O)N([C@H]1CCc2c(F)cc(Cl)cc21)[C@@H](C(N)=O)c1ccccc1`, in the assay on Rattus norvegicus [15], the inhibition in vivo at 3 mg/kg is 100%.
For the compound `CCCCC/C=C/C/C=C\C/C=C/C/C=C/CCCC(=O)NCCc1ccc(O)c(O)c1`, in [4], 0.7 µM corresponded to half-maximal inhibition (IC50).
For `Clc1ccccc1C(c1ccccc1)(c1ccccc1)n1ccnc1` [CLOTRIMAZOLE], half-maximal inhibition in assay [4] (IC50) was put at 8 µM.
As to `Cc1c(N(Cc2ccc(F)c(C(F)(F)F)c2)S(=O)(=O)c2ccc(C(=O)O)cc2)sc2ccccc12`, the IC50 amounted to 0.0011 µM in assay [16] and 0.0023 µM in assay [21]. Also, the inhibition in vivo at 30 mg/kg in the assay with Rattus norvegicus [17] came out at 69%; with Rattus norvegicus [18], 64%. In the assay filed under Rattus norvegicus [19], the ED50 amounted to 2.5 mg/kg. The “inhibition (INH)” value in the assay listed under Rattus norvegicus [20] came to 75%. Also, the Activity in the assay on Rattus norvegicus [22] was 91%.
`CCCCCc1cc(O)c(C/C=C(\C)CCC=C(C)C)c(O)c1` [CANNABIGEROL]: half-maximal inhibition in assay [4] (IC50) was put at 0.16 µM.
`CC(C)[C@@H]1CC[C@@H](C)C[C@H]1OC(=O)[C@@H](C)O` showed an EC50 in [8] of 160 µM.
On to `Cc1ccc2nc(C(F)(F)F)n(-c3ccc(C(=O)CN4C(=O)NC5(CCC(F)(F)CC5)C4=O)cc3)c2n1`, for which the IC50 in assay [23] is less than 0.01 µM.
`CCn1/c(=N/S(=O)(=O)c2ccccc2)n(Cc2ccc(C(F)(F)F)c(F)c2)c2cc(C(F)(F)F)ccc21`: in assay [5], the IC50 turned out to be 0.005 µM.
Take `COC(=O)C(NCc1ccccc1)[C@H](Cc1ccccc1)NC(=O)OCc1ccccc1` (stereo partly drawn): it took 3 µM to reach half-maximal inhibition in [24] (IC50).
Regarding `O=C(N[C@]1(c2ccc(OC(F)(F)F)cc2)CCOc2cccnc21)c1ccc2[nH]cnc2c1`, the inhibition in vivo at 1 mg/kg in the assay on Rattus norvegicus [25] is greater than 90%. The compound also yielded an IC50 in assay [26] of 0.004 µM.
`C=C(C)[C@@H]1CCC(C)=C[C@H]1c1c(O)cc(CCCCC)cc1O` [CANNABIDIOL] registered an IC50 in [4] of 0.06 µM.
The compound `COc1ccc(NC(=O)[C@@H]2C[C@H](C)CC[C@H]2C(C)C)cc1` [ACOLTREMON] returned an EC50 in assay [8] of 12 µM.
Regarding `c1ccc(CN(CCc2c[nH]c3ccccc23)Cc2ccccc2)cc1`, the IC50 came out at 0.035 µM in [27] and 0.8 µM in assay [4].
The compound `COc1ccc2c(c1)n(CCN)c(=O)n2C(=O)[C@@H]1C[C@H](C)CC[C@H]1C(C)C` gave a concentration for a half-maximal effect (EC50) in assay [8] of less than 5 µM.
In assay [10], `Cc1c(N(Cc2ccc(F)c(C(F)(F)F)c2)S(=O)(=O)N2CCC(C(=O)O)CC2)sc2ccccc12` displayed an IC50 of 0.026 µM.
With `CC(C)=CCC/C(C)=C/CO` [GERANIOL], the response in assay [6] was half-maximal at 6000 µM (EC50).
`CCCCC/C=C/C/C=C\C/C=C/C/C=C/CCCC(=O)NCCO`: in [4], the IC50 was 0.15 µM.
Same read-out and setting: under `COc1cc(CNC(=O)CCCC/C=C/C(C)C)ccc1O` [CAPSAICIN] stands 1 µM.
As for `Clc1ccc(-c2nnc(N3CCOCC3)n2-c2ccccc2)cc1`, the EC50 in [28] is 4 µM; in [14], 45 µM.
The compound `COc1cc(CN(CCN)c2nc3ccccc3s2)ccc1OCc1ccccc1F` yielded an IC50 in [4] of less than 0.02 µM.
Compound `CCn1c(N(Cc2ccc(C(F)(F)F)cc2)S(=O)(=O)c2ccccc2)nc2cc(F)ccc21` came in with an IC50 in assay [5] of 0.006 µM.
